SMILES strings stand for the structures.

The text below walks through data of publication PMC12434071, “Platinum-group metal half-sandwich complexes of 1-(α-D-glucopyranosyl)-4-hetaryl-1,2,3-triazoles: synthesis, solution equilibrium studies, and investigation of their anticancer and antimicrobial activities” (Frontiers in Chemistry, 2025).

For assay [1], the system named is A2780 cells. Put plainly: MTT reduction assay on A2780 cells. Format: cell-based. Conditions: maximal inhibition; 4 h treatment; maximum concentration 100 µM. The method, then: For MTT assays, 4 × 10^3 A2780 cells were plated into 96-well plates, and for SRB assays, 1.5 × 10^3 A2780 cells were plated into 96-well plates. Cells were treated with the compounds in the concentrations indicated for either 4 h for an MTT assay or for 48 h for an SRB assay. Data are represented as average ± SD, from four biological replicates, with the exception of the MTT dataset of Ir-2b and the SRB datasets of 2b, Ru/Ir-2b, and Ir-3a, which were derived from three biological replicates. Individual assays were performed in duplicate. Values were normalized for vehicle-treated cells, and the absorbance for vehicle-treated cells equals 1. Data are represented as fold change compared to vehicle-treated controls. Normality was assessed using the D'Agostino-Pearson test. Statistical significance was assessed using a two-way ANOVA test followed by Tukey's post hoc test. For better visibility, normality, transformations, statistical tests, and p values are presented in an MS Excel sheet at https://figshare.com/s/3a0aa60b66f3f746f41e. Color code: black-free ligand (2a,b or 3a), khaki-ruthenium complex (Ru-2a,b or Ru-3a), green-iridium complex (Ir-2a,b or Ir-3a).  FIGURE 5 The ruthenium, osmium, and iridium complexes of ligands 4a, 4b, and 5a decrease MTT reduction. For MTT assays, 4 × 10^3 A2780 cells, 3 × 10^3 ID8 cells, or 6 × 10^3 human primary fibroblasts were plated into 96-well plates. Cells were treated with the compounds in the concentrations indicated for 4 h. Data are represented as average ± SD, from four biological replicates on A2780, and from three biological replicates on ID8 and human primary fibroblasts. For the datasets of 5a and Os-5a on human primary fibroblasts, the data represent four biological replicates. Individual assays were performed in duplicate. Values were normalized for vehicle-treated cells, and the absorbance for vehicle-treated cells equals 1. Normality was assessed using the D'Agostino-Pearson test. Statistical significance was assessed using a two-way ANOVA test followed by Tukey's post hoc test. For better visibility, normality, transformations, statistical tests, and p values are presented in an MS Excel sheet at https://figshare.com/s/3a0aa60b66f3f746f41e. Color code: black-free ligand (4a,b or 5a), khaki-ruthenium complex (Ru-4a,b), green-iridium complex (Ir-4a,b), blue-osmium complex (Os-4a,b or Os-5a), and red-rhodium complex (Rh-4a,b). An MTT reduction assay measures the activity of mitochondrial complex I and can be used to detect toxicity ([[…] et al., 2016]). The assay was performed in a manner similar to that described by [[…] et al. (2023b)]. Briefly, cells were plated into 96-well plates the day before the assay. Cells were treated with the compounds for 4 h; then, MTT was added to a 0.5 mg/mL final concentration, and cells were incubated at 37°C in a cell incubator for 40-60 min, as a function of the cell line being assessed. The culture medium was removed, the reduced MTT dye was dissolved in dimethylsulfoxide, and plates were measured in a plate photometer (Thermo Scientific Multiscan GO spectrophotometer, Waltham, MA, United States) at 540 nm. Certain wells were designated to contain vehicle-treated cells on each plate. In calculations, the readings for these wells were considered to 1, and all readings were expressed relative to these values. Statistical analysis was performed using version 8.0.1 of GraphPad Prism. Values were tested for normal distribution using the D'Agostino-Pearson or Shapiro-Wilk normality tests. When necessary, values were log-normalized or normalized using the Box-Cox or two-step normalization method ([Box and Cox, 1964]), as indicated in the MS Excel file listing the values at https://figshare.com/s/3a0aa60b66f3f746f41e. The following statistical test, post hoc test, and the level of significance are indicated in the MS Excel file listing the values at https://figshare.com/s/3a0aa60b66f3f746f41e. […]
A general note: Tetrazolium assays rely on reduction of a dye to a coloured formazan, in cell work by metabolically active cells.

Assay [2] has as its system ID8 cells. Put plainly: SRB assay on ID8 cells. It is filed as cell-based. The settings on record: maximal inhibition; 48 h treatment; maximum concentration 100 µM. As to the method:
FIGURE 7 The ruthenium, osmium, and iridium complexes of ligands 4a, 4b, and 5a are cytostatic on ovarian cancer models with a good therapeutic index. For SRB assays, 1.5 × 10^3 A2780 cells, 1.5 × 10^3 ID8 cells, or 4 × 10^3 primary fibroblasts were plated into 96-well plates. Cells were treated with the compounds in the concentrations indicated for 48 h. Data are represented as average ± SD, from four biological replicates on A2780 and human primary fibroblasts, except in the case of Os complexes, where experiments were performed in three biological replicates. ID8 cells were assessed in three biological replicates. Individual assays were performed in duplicate. Values were normalized for vehicle-treated cells, and the absorbance for vehicle-treated cells equals 1. Normality was assessed using the D’Agostino–Pearson test. Statistical significance was assessed using a two-way ANOVA test followed by Tukey’s post hoc test. For better visibility, normality, transformations, statistical tests, and p values are presented in an MS Excel sheet at https://figshare.com/s/3a0aa60b66f3f746f41e. Color code: black—free ligand (4a,b or 5a), khaki—ruthenium complex (Ru-4a,b), blue—osmium complex (Os-4a,b or Os-5a), green—iridium complex (Ir-4a,b), and red—rhodium complex (Rh-4a,b). An SRB assay measures protein content of cells in correlation with the cell number in an assay well and can therefore be used to assess cell proliferation or long-term cytostasis ([Skehan et al., 1990]). Cells were seeded into 96-well plates the day before the treatment for the assay. Cells were treated with the various compounds for 48 h. Then, the medium was removed, and cells were fixed with 10% trichloroacetic acid. Fixed cells were washed in distilled water three times, followed by staining with SRB (0.4 m/V% dissolved in 1% acetic acid) for 10 min. Stained cells were washed in 1% acetic acid five times; the acetic acid was removed, and the cells were left to dry. […] Plates were measured in a plate photometer (Thermo Scientific Multiscan GO spectrophotometer, Waltham, MA, United States) at 540 nm. […]
(The SRB assay estimates cell density from bound dye.)

Take `OC[C@H]1O[C@H](n2cc(-c3ccccn3)nn2)[C@H](O)[C@@H](O)[C@@H]1O` [Complex 3a, 1-(α-D-Glucopyranosyl)-4-(pyridin-2-yl)-1,2,3-triazole]: in assay [1], the “A2780 MTT max %” value is recorded as 0%.
For `O=C(OC[C@H]1O[C@H](n2cc(-c3ccccn3)nn2)[C@H](OC(=O)c2ccccc2)[C@@H](OC(=O)c2ccccc2)[C@@H]1OC(=O)c1ccccc1)c1ccccc1` [Complex 4a, 1-(2’,3’,4’,6’-Tetra-O-benzoyl-α-D-glucopyranosyl)-4-(pyridin-2-yl)-1,2,3-triazole], the “A2780 MTT max %” value in assay [1] was 0%. Besides, the “ID8 SRB max %” value in assay [2] is 0%.
Consider `O=C(OC[C@H]1O[C@H](n2cc(-c3ccc4ccccc4n3)nn2)[C@H](OC(=O)c2ccccc2)[C@@H](OC(=O)c2ccccc2)[C@@H]1OC(=O)c1ccccc1)c1ccccc1` [Complex 4b, 1-(2’,3’,4’,6’-Tetra-O-benzoyl-α-D-glucopyranosyl)-4-(quinolin-2-yl)-1,2,3-triazole], for which, in assay [1], the “A2780 MTT max %” value was determined as 0%. Also, in assay [2], the “ID8 SRB max %” value is 0%.
With `CCCCC(=O)OC[C@H]1O[C@H](n2cc(-c3ccccn3)nn2)[C@H](OC(=O)CCCC)[C@@H](OC(=O)CCCC)[C@@H]1OC(=O)CCCC` [Complex 5a, 1-(2’,3’,4’,6’-Tetra-O-pentanoyl-α-D-glucopyranosyl)-4-(pyridin-2-yl)-1,2,3-triazole], the “A2780 MTT max %” value in assay [1] turned out to be 0%. In addition, the “ID8 SRB max %” value in assay [2] was 0%.
